# Measured values published in patent publication US7745402B2, “Method of treating pancreatitis” (Lundbeck Inc., priority 2005, dated 2010).
# d = 2'-deoxy (DNA); r = 2'-OH (RNA)
# How the values were obtained:
# HO-1 = HO-1 knock-down in vivo by siRNA, immunoblot of peritoneal cells; parameters: species or system mice; details: siRNA 2 mg/kg i.p. 3×, hemin on intervening days
# Protocol: (§1) (A,B) Peritoneal cells were isolated from hemin-treated mice that were also injected intraperitoneally on alternate days with saline (−), HO-1 siRNA (construct #1 and #2), or scramble control (Sc) siRNA. The peritoneal cells were then used to examine HO-1 and HO-2 levels by immunoblotting. (C,D) Peritoneal cells were harvested from hemin/construct #2 HO-1 siRNA or hemin/scrambled siRNA injected mice then transferred into naive recipient littermates followed by immediate initiation of CDD feeding. At 2.5 d of CDD feeding, pancreata were collected for histologic scoring. Data for histology score are presented as mean±SD (n=5-6/group), and are 6.4±1.7 (scrambled) and 12.7±4.5 (HO-1 siRNA). (E) Pancreata from panels C,D were double stained using antibodies to F4/80 and HO-1 (scale bar=20 μm).
# HO-1 siRNA and hemin pretreated cell transfer. Mice were injected i.p. every other day (3 total injections) with either saline or with two HO-1 siRNA constructs (2 mg/kg body weight), or with a scrambled siRNA sequence. Hemin was injected in the intervening days (an additional 3 injections). After 7 days, peritoneal cells were harvested and analyzed by immunoblotting using antibodies to HO-1/2. […] The siRNAs were synthesized by Dharmacon Research Inc. (Lafayette, Colo.) and tested previously. Zhang, X., Shan, P., Jiang, D., Noble, P. W., Abraham, N. G., Kappas, A., and Lee, P. J. 2004. […]
# CDD-induced pancreatitis = test: Transfer of hemin/siRNA pretreated peritoneal cells into CDD-fed mice, histologic scoring; format: in vivo; details: recipients of peritoneal cells from hemin + siRNA injected mice; 2.5 d CDD; mean±SD, n=5-6/group
# Protocol: as §1, with “(E) Pancreata from panels C,D were double stained using antibodies to F4/80 and HO-1 (scale bar=20 μm).” left out
# Hemin pretreated peritoneal cell transfer into CDD-fed mice. […] Mice were sacrificed after 2.5 d of CDD feeding, followed by isolation of the pancreata.(for histological and fluorescence staining) and blood. […] The severity of pancreatitis was scored using established histological criteria that assigned individual numerical scores (1=mild, 2=moderate, 3=severe) to edema, inflammation, hemorrhage; and alternate scores for parenchymal necrosis (3=focal, 5=sublobular, and 7=lobular). […]
# HO-1 siRNA and hemin pretreated cell transfer. […] After 7 days, peritoneal cells were harvested and analyzed by immunoblotting using antibodies to HO-1/2. […]
Substance,HO-1 level in peritoneal cells (HO-1),histology score (CDD-induced pancreatitis)
"HO-1 siRNA: HO-1 siRNA construct #2: 5′-GCCACACAGCACUAUGUAAdTdT-3′ (sense), 5′-UUACAUAGUGCUGUGUGGCdTdT-3′ (antisense) (sense GCCACACAGCACUAUGUAATT; antisense UUACAUAGUGCUGUGUGGCTT; chemistry not fully specified)",significant inhibition of HO-1,12.7±4.5
"scrambled: nonspecific siRNA scrambled duplex: 5′-GCGCGCUUUGUAGGAUUCGdTdT-3′ (sense), 5′-CGAAUCCUACAAAGCGCGCdTdT-3′ (antisense) (sense GCGCGCUUUGUAGGAUUCGTT; antisense CGAAUCCUACAAAGCGCGCTT; sugars from the 5' end r19 d2, backbone not given here)",–,6.4±1.7
